Drawing on patent publication US10233188B2, “CDK2/4/6 inhibitors” (priority 2016, dated 2019), this text covers Ki for nine molecules.

Molecules are shown by their SMILES.

Usually Ki stands for a dissociation constant, usually derived from enzyme kinetics or from competition with a known ligand. Lower therefore signals higher affinity.

One assay concerns the target CDK6/Cyclin D1 (Homo sapiens (Human), UniProt Q00534). Kind of assay: biochemical. To be noted: CDK6_Ki (nM), non-phosphorylated CDK6/Cyclin D1, 2 mM ATP, Morrison fit.
A further assay addresses CDK2/Cyclin E1 (Homo sapiens (Human), UniProt P24941). The experiment in a line: biochemical. The note with it: CDK2_Ki (nM), phosphorylated CDK2/Cyclin E1, 150 μM ATP, Morrison tight-binding fit.

Sequence of CDK6/Cyclin D1 (Q00534 whole entry): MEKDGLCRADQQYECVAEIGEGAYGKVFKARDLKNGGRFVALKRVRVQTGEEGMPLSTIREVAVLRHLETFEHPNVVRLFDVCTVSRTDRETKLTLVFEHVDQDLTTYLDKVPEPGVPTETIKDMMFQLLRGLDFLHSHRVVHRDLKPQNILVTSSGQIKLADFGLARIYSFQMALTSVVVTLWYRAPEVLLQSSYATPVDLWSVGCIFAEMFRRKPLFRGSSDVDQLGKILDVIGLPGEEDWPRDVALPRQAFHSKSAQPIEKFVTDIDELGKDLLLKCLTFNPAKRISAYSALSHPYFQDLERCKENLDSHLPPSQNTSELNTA
Sequence of CDK6/Cyclin D1 (P24385 whole entry partner): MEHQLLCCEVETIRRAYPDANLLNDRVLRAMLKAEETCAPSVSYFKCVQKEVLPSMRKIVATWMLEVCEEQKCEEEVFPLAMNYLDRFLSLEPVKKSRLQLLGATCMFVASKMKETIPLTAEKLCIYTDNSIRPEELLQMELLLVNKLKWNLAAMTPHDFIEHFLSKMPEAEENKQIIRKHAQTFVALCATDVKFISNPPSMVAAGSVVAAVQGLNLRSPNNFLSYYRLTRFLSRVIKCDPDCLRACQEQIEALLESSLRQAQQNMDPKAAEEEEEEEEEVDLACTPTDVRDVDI
Protocol for CDK2/Cyclin E1: The assay was initiated with the addition of ATP, following a fifteen minutes pre-incubation of enzyme and inhibitor at room temperature in the reaction mixture. The reaction was stopped after 45 minutes at room temperature by the addition of 50 μL of 80 mM EDTA, pH 7.5.

Take `CNS(=O)(=O)N1CCC(Nc2ncc3ccc(=O)n([C@@H]4CCC[C@@]4(C)O)c3n2)CC1` (single isomer, unassigned) [Example 56, (−)-4-({8-[(1R*,2R*)-2-hydroxy-2-methylcyclopentyl]-7-oxo-7,8-dihydropyrido[2,3-d]pyrimidin-2-yl}amino)-N-methylpiperidine-1-sulfonamide]: the figures for the Ki on CDK6/Cyclin D1 and at CDK2/Cyclin E1 were 1.77 nM and 0.28 nM, respectively.

For `C[C@]1(O)CCC[C@@H]1n1c(=O)ccc2cnc(NC3CCN(S(=O)(=O)C4CC4)CC3)nc21` (single isomer, unassigned) [Example 75, (+)-2-{[1-(cyclopropylsulfonyl)piperidin-4-yl]amino}-8-[(1R*,2R*)-2-hydroxy-2-methylcyclopentyl]pyrido[2,3-d]pyrimidin-7(8H)-one], the results for the Ki on CDK6/Cyclin D1 and at CDK2/Cyclin E1 were 4.96 nM and 3.85 nM, respectively.

With `C[C@]1(O)CCC[C@@H]1n1c(=O)c(Cl)cc2cnc(NC3CCN(S(N)(=O)=O)CC3)nc21` (single isomer, unassigned) [Example 129, (+)-4-({6-chloro-8-[(1R*,2R*)-2-hydroxy-2-methylcyclopentyl]-7-oxo-7,8-dihydropyrido[2,3-d]pyrimidin-2-yl}amino)piperidine-1-sulfonamide], the Ki at CDK6/Cyclin D1 worked out at 5.73 nM; on CDK2/Cyclin E1, 1.47 nM.

Take `C[C@]1(O)CCC[C@@H]1n1c(=O)ccc2cnc(NC3CCN(S(=O)(=O)c4nncs4)CC3)nc21` (single isomer, unassigned) [Example 81, (+)-8-[(1R*,2R*)-2-hydroxy-2-methylcyclopentyl]-2-{[1-(1,3,4-thiadiazol-2-ylsulfonyl)piperidin-4-yl]amino}pyrido[2,3-d]pyrimidin-7(8H)-one]: the inhibition constant (Ki) on CDK6/Cyclin D1 is 6.24 nM; at CDK2/Cyclin E1, 7.03 nM.

Regarding `C[C@@]1(O)CCC[C@H]1n1c(=O)ccc2cnc(NC3CCN(S(=O)(=O)C(F)(F)F)CC3)nc21` (single isomer, unassigned) [Example 88, (−)-8-[(1R*,2R*)-2-hydroxy-2-methylcyclopentyl]-2-({1-[(trifluoromethyl)sulfonyl]piperidin-4-yl}amino)pyrido[2,3-d]pyrimidin-7(8H)-one], the inhibitory constant (Ki) amounted to 1.99 nM at CDK6/Cyclin D1 and 1.34 nM at CDK2/Cyclin E1.

In the case of `Cc1cc2cnc(NC3CCN(S(=O)(=O)C(F)(F)F)CC3)nc2n([C@H]2CCC[C@]2(C)O)c1=O` (single isomer, unassigned) [Example 182, (+)-8-[(1R*,2R*)-2-hydroxy-2-methylcyclopentyl]-6-methyl-2-({1-[(trifluoromethyl)sulfonyl]piperidin-4-yl}amino)pyrido[2,3-d]pyrimidin-7(8H)-one], the Ki was 9.5 nM on CDK6/Cyclin D1 and 12.6 nM at CDK2/Cyclin E1.

Turning to `CCS(=O)(=O)N1CCC(Nc2ncc3ccc(=O)n([C@H]4CCC[C@]4(C)O)c3n2)CC1` (single isomer, unassigned) [Example 77, (+)-2-{[1-(ethylsulfonyl)piperidin-4-yl]amino}-8-[(1R*,2R*)-2-hydroxy-2-methylcyclopentyl]pyrido[2,3-d]pyrimidin-7(8H)-one], the results for the Ki at CDK6/Cyclin D1 and at CDK2/Cyclin E1 were 6.6 nM and 4.07 nM, respectively.

With `Cc1cc2cnc(NC3CCN(S(C)(=O)=O)CC3)nc2n([C@H]2COC[C@]2(C)O)c1=O` (single isomer, unassigned) [Example 198, (+)-8-[(3R*,4S*)-4-hydroxy-4-methyltetrahydrofuran-3-yl]-6-methyl-2-{[1-(methylsulfonyl)piperidin-4-yl]amino}pyrido[2,3-d]pyrimidin-7(8H)-one], the Ki on CDK6/Cyclin D1 was determined as 31 nM; on CDK2/Cyclin E1, 26.9 nM.

In the case of `CS(=O)(=O)N1CCC(Nc2ncc3cc(CC(F)F)c(=O)n([C@H]4CC[C@H](O)C4)c3n2)CC1` (single isomer, unassigned) [Example 171, (+)-6-(2,2-difluoroethyl)-8-[(1R*,3R*)-3-hydroxycyclopentyl]-2-{[1-(methylsulfonyl)piperidin-4-yl]amino}pyrido[2,3-d]pyrimidin-7(8H)-one], the inhibition constant Ki on CDK6/Cyclin D1 was determined as 1.55 nM; at CDK2/Cyclin E1, 1.73 nM.
